In patent publication US7524930B2, “Tumor antigen” (Green Peptide Co., Ltd, priority 2003, dated 2009):

System: OK-CTL clone
Assay: IFN-γ production by OK-CTL clones cultured with COS-7 cells cotransfected with cDNA clone and HLA-A0207 cDNA
Type: cell-based, human
Parameters: unit not given here
Method: Since CTL activated by recognizing the tumor antigen is a population of cells recognizing plural kinds of tumor antigens, the above-described OK-CTLp was subjected to cloning by limiting dilution culture (0.3, 0.5, 1, 2, and 4 cells/well) to obtain an OK-CTL clone (J. Immunol., 163:4994-5004, 1999. ) These clones are those having CTL activity selected by culturing them together with COS-7 cells into which 100 ng/well of any one of the above-described seven cDNA clones and 100 ng/well of HLA-A0207 cDNA were cotransfected, or with the tumor cells, in a cell ratio of 1:1, and measuring IFN-γ production. Specifically, three hundred CTL clones were obtained from the parent line OK-CTLp by a limiting dilution culture. Eighty CTL clones among them had HLA-A2-restricted tumor-specific CTL activity and expressed the phenotype of CD3^+ CD4^− CD8^+ and TCR αβ^+.

[1] = CTL clone 0.5-1-D6, cDNA with HLA-A0207 cDNA in COS-7
[2] = CTL clone 0.5-1-D7, cDNA with HLA-A0207 cDNA in COS-7
[3] = CTL clone 0.5-1-H2, cDNA with HLA-A0207 cDNA in COS-7
[4] = CTL clone 0.5-1-H12, cDNA with HLA-A0207 cDNA in COS-7
[5] = CTL clone 0.5-2-A4, cDNA with HLA-A0207 cDNA in COS-7
[6] = CTL clone 1-2-D1, cDNA with HLA-A0207 cDNA in COS-7
[7] = CTL clone 1-2-D7, cDNA with HLA-A0207 cDNA in COS-7
[8] = CTL clone 1-2-D12, cDNA with HLA-A0207 cDNA in COS-7
[9] = CTL clone 2-1-F4, cDNA with HLA-A0207 cDNA in COS-7
[10] = CTL clone 2-1-H12, cDNA with HLA-A0207 cDNA in COS-7
[11] = CTL clone 2-2-B4, cDNA with HLA-A0207 cDNA in COS-7
[12] = CTL clone 2-2-H3, cDNA 100 ng/well with HLA-A0207 cDNA in COS-7
[13] = CTL clone 4-1-H8, cDNA with HLA-A0207 cDNA in COS-7
[14] = CTL clone 4-2-A11, cDNA with HLA-A0207 cDNA in COS-7
[15] = CTL clone 4-2-B3, cDNA with HLA-A0207 cDNA in COS-7

Q: How did the “IFN-γ production by CTL clone” value [1] turn out when “clone 2: cDNA clone from Panc-1, 2097 bp [AB044547], high homology with HNRPL” was run?
A: 0

Q: What about the “IFN-γ production by CTL clone” value [2] of the same molecule?
A: 34

Q: And the “IFN-γ production by CTL clone” value [3]?
A: 0

Q: And the “IFN-γ production by CTL clone” value [4]?
A: 0

Q: And the “IFN-γ production by CTL clone” value [5]?
A: 0

Q: What about the “IFN-γ production by CTL clone” value [6] of the same molecule?
A: 0

Q: And the “IFN-γ production by CTL clone” value [7]?
A: 200

Q: And the “IFN-γ production by CTL clone” value [8]?
A: >1000

Q: What about the “IFN-γ production by CTL clone” value [9] of the same molecule?
A: 0

Q: And the “IFN-γ production by CTL clone” value [10]?
A: 0

Q: What about the “IFN-γ production by CTL clone” value [11] of the same molecule?
A: 0

Q: What about the “IFN-γ production by CTL clone” value [12] of the same molecule?
A: 0

Q: And the “IFN-γ production by CTL clone” value [13]?
A: 133

Q: What about the “IFN-γ production by CTL clone” value [14] of the same molecule?
A: 0

Q: And the “IFN-γ production by CTL clone” value [15]?
A: 0

Q: What does the source list for “clone 3: cDNA clone from Panc-1, 2243 bp [AB044549], high homology with WHSC2”?
A: IFN-γ production by CTL clone [1]: 0; IFN-γ production by CTL clone [2]: 0; IFN-γ production by CTL clone [3]: 0; IFN-γ production by CTL clone [4]: 0; IFN-γ production by CTL clone [5]: 0; IFN-γ production by CTL clone [6]: 22; IFN-γ production by CTL clone [7]: 0; IFN-γ production by CTL clone [8]: 0; IFN-γ production by CTL clone [9]: 0; IFN-γ production by CTL clone [10]: 0; IFN-γ production by CTL clone [11]: 0; IFN-γ production by CTL clone [12]: 0; IFN-γ production by CTL clone [13]: 0; IFN-γ production by CTL clone [14]: 100; IFN-γ production by CTL clone [15]: 0

Q: For “clone 6: cDNA clone from Panc-1, 6707 bp [AB044545], homology with 2-5 OAS3”, which “IFN-γ production by CTL clone” value [1] is on record?
A: 13

Q: What about the “IFN-γ production by CTL clone” value [2] of the same molecule?
A: 110

Q: And the “IFN-γ production by CTL clone” value [3]?
A: 0

Q: What about the “IFN-γ production by CTL clone” value [4] of the same molecule?
A: 0

Q: And the “IFN-γ production by CTL clone” value [5]?
A: 113

Q: What about the “IFN-γ production by CTL clone” value [6] of the same molecule?
A: 61

Q: What about the “IFN-γ production by CTL clone” value [7] of the same molecule?
A: 0

Q: And the “IFN-γ production by CTL clone” value [8]?
A: 0

Q: What about the “IFN-γ production by CTL clone” value [9] of the same molecule?
A: 0

Q: What about the “IFN-γ production by CTL clone” value [10] of the same molecule?
A: 0

Q: What about the “IFN-γ production by CTL clone” value [11] of the same molecule?
A: >1000

Q: What about the “IFN-γ production by CTL clone” value [12] of the same molecule?
A: 0

Q: What about the “IFN-γ production by CTL clone” value [13] of the same molecule?
A: 0

Q: What about the “IFN-γ production by CTL clone” value [14] of the same molecule?
A: 0

Q: And the “IFN-γ production by CTL clone” value [15]?
A: 0

B1: clone 4: cDNA clone from Panc-1, 831 bp [AB044548], high homology with EIF4EBP1 (nucleic acid, listed as Homo sapiens)
DNA: GCGGGAGGGCAGCGAGAGGTTCGCGGGTGCAGCGCACAGGAGACCATGTCCGGGGGCAGCAGCTGCAGCCAGACCCCAAGCCGGGCCATCCCCGCCACTCGCCGGGTGGTGCTCGGCGACGGCGTGCAGCTCCCGCCCGGGGACTACAGCACGACCCCCGGCGGCACGCTCTTCAGCACCACCCCGGGAGGTACCAGGATCATCTATGACCGGAAATTCCTGATGGAGTGTCGGAACTCACCTGTGACCAAAACACCCCCAAGGGATCTGCCCACCATTCCGGGGGTCACCAGCCCTTCCAGTGATGAGCCCCCCATGGAAGCCAGCCAGAGCCACCTGCGCAATAGCCCAGAAGATAAGCGGGCGGGCGGTGAAGAGTCACAGTTTGAGATGGACATTTAAAGCACCAGCCATCGTGTGGAGCACTACCAAGGGGCCCCTCAGGGCCTTCCTGGGAGGAGTCCCACCAGCCAGGCCTTATGAAAGTGATCATACTGGGCAGGCGTTGGCGTGGGGTCGGACACCCCAGCCCTTTCTCCCTCACTCAGGGCACCTGCCCCCTCCTCTTCGTGAACACCAGCAGATACCTCCTTGTGCCTCCACTGATGCAGGAGCTGCCACCCCAAGGGGAGTGACCCCTGCCAGCACACCCTGCAGCCAAGGGCCAGGAAGTGGACAAGAACGAACCCTTCCTTCCGAATGATCAGCAGTTCCAGCCCCTCGCTGCTGGGGGCGCAACCACCCCTTCCTTAGGTTGATGTGCTTGGGAAAGCTCCCTCCCCCTCCTTCCCCAAGAGAGGAAATAAAAGCCACCTTCGCCCTAGGGCCAAG
modifications: polyA_site (831)..(831)
Q: With B1 as the molecule, how does the “IFN-γ production by CTL clone” value [1] read?
A: 118

Q: And the “IFN-γ production by CTL clone” value [2]?
A: 0

Q: And the “IFN-γ production by CTL clone” value [3]?
A: 0

Q: And the “IFN-γ production by CTL clone” value [4]?
A: >1000

Q: What about the “IFN-γ production by CTL clone” value [5] of the same molecule?
A: 0

Q: And the “IFN-γ production by CTL clone” value [6]?
A: 44

Q: What about the “IFN-γ production by CTL clone” value [7] of the same molecule?
A: 0

Q: And the “IFN-γ production by CTL clone” value [8]?
A: 0

Q: What about the “IFN-γ production by CTL clone” value [9] of the same molecule?
A: 0

Q: And the “IFN-γ production by CTL clone” value [10]?
A: 0

Q: What about the “IFN-γ production by CTL clone” value [11] of the same molecule?
A: 0

Q: And the “IFN-γ production by CTL clone” value [12]?
A: 0

Q: What about the “IFN-γ production by CTL clone” value [13] of the same molecule?
A: 0

Q: And the “IFN-γ production by CTL clone” value [14]?
A: 0

Q: What about the “IFN-γ production by CTL clone” value [15] of the same molecule?
A: 95
